Assay results reported in article PMC11217349, “Development of Nurr1 agonists from amodiaquine by scaffold hopping and fragment growing” (Communications Chemistry, 2024).
“And” between values parts separate entries of the source, which are not always exact repeats. Equal values may be shown once.

Legend:
[1] = molecular target: T1, human Nurr1 (hinge region and ligand binding domain) (Homo sapiens, UniProt P43354); assay: Gal4-Nurr1 hybrid reporter gene assay; format: cell-based; details: mean ± SD, n ≥ 3; for EC50: Gal4-Nurr1 hybrid reporter, HEK293T, read-out: EC50(Nurr1); for max. activation: maximum effect vs. 0.1% DMSO control
T1 construct: expressed in transfected cells; host or cells: HEK293T
T1 sequence (P43354 360-595 limits assumed): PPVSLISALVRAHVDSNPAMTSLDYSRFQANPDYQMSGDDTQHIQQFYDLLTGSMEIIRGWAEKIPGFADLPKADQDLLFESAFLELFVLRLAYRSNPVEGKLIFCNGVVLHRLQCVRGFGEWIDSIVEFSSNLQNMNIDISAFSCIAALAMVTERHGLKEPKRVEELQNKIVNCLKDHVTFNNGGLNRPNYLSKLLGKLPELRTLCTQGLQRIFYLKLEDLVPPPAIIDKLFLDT
Protocol: Nurr1 modulation was determined in a Gal4 hybrid reporter gene assay in HEK293T cells (German Collection of Microorganisms and Cell Culture GmbH, DSMZ) using pFR-Luc (Stratagene, La Jolla, CA, USA; reporter), pRL-SV40 (Promega, Madison, WI, USA; internal control) and pFA-CMV-hNurr1-LBD[14], coding for the hinge region and ligand binding domain of the canonical isoform of human Nurr1. […] After 24 h, the medium was changed to Opti-MEM without supplements, and cells were transiently transfected using Lipofectamine LTX reagent (Invitrogen, Carlsbad, CA, USA) according to the manufacturer’s protocol. Five hours after transfection, cells were incubated with the test compounds in Opti-MEM supplemented with penicillin (100 U/mL), streptomycin (100 μg/mL), and 0.1% DMSO for 16 h before luciferase activity was measured using the Dual-Glo Luciferase Assay System (Promega) according to the manufacturer’s protocol on a Tecan Spark luminometer (Tecan Deutschland GmbH, Crailsheim, Germany). Firefly luminescence was divided by Renilla luminescence and multiplied by 1000 resulting in relative light units (RLU) to normalize for transfection efficiency and cell growth. Fold activation was obtained by dividing the mean RLU of the test compound by the mean RLU of the untreated control. All samples were tested in at least three biologically independent experiments in duplicates. For dose-response curve fitting and calculation of EC50 values, the equation “[Agonist] vs. response -- Variable slope (four parameters)” was used in GraphPad Prism (version 7.00, GraphPad Software, La Jolla, CA, USA). Selectivity profiling was performed with identical procedures using pFA-CMV-Nur77-LBD[14], pFA-CMV-NOR-1-LBD[14], pFA-CMV-THRα-LBD[51], pFA-CMV-RARα-LBD[52], pFA-CMV-PPARα-LBD[53], pFA-CMV-PPARγ-LBD[53], pFA-CMV-PPARδ-LBD[53], pFA-CMV-LXRα-LBD[54], pFA-CMV-FXR-LBD[55] and pFA-CMV-hRXRα-LBD[56].

[2] = Parallel artificial membrane permeability assay (PAMPA); format: in vitro ADME; details: 500 µM donor, pH 7.4, 18 h
Protocol: Passive lipid membrane diffusion of test compounds was determined using Merck Millipore MultiScreen Filter Plates (0.45 μm pore diameter, hydrophobic PVDF). The filter inserts were coated with 1% L-α-phosphatidylcholine (Fluka Analytical) in n-dodecan. The test compounds were then added to the donor compartment at a final concentration of 500 µM in a phosphate buffer pH 7.4 containing 5% DMSO with a total volume of 150 µL. The acceptor compartment was filled with 300 µL PBS containing 5% DMSO. Additionally, three equilibrium samples were prepared by directly adding the donor solution to the acceptor compartment for the calculation of log Pe values. The filter plates were incubated for 18 h before the test compound concentrations in the acceptor compartments and in the equilibrium, samples were determined by UV absorbance at 320 nm (34), 360 nm (36), 310 nm (41), or 315 nm (42) with external calibration in a 96 well quartz plate on a SpectraMax M2e microplate reader (Molecular Devices). logPe values were calculated according to the formula published by Sugano and colleagues.

Microsomal stability = format: in vitro ADME, rat; details: male, Sprague-Dawley, pH 7.4; rat liver microsomes, 10 µM, LCMS
Protocol: To determine microsomal stability, test compounds (10 μM) were incubated in 100 mM potassium phosphate buffer at pH 7.4 (total volume of 100 µL) containing 0.5 mg/mL male rat liver microsomes (Sprague-Dawley, no. M9066, Merck KGaA, Darmstadt) and 1 mM NADPH for 0, 15, 30, or 60 min. At the end of the incubation time, microsomal activity was terminated by the addition of 500 µL MeCN and subsequent centrifugation at 1700 g for 5 min. A reaction mixture containing heat-inactivated microsomes (95 °C, 10 min) was prepared as a control for each compound. 5 µL supernatant of each sample was analyzed and the remaining concentrations of the respective test compounds at each time point were determined by LC-MS/MS on an API-3200-QTrap (Sciex) with an Agilent Technologies 1100 series setup including a binary pump (G1311A), a degasser (G1322A), and a Shimadzu SIL 20 A HT autosampler under the control of Analyst 1.6 (Sciex). A XBridge BEH C18 (3.5 µm, 150 mm×3 mm, Waters, protected with a 0.5 µm frit) stationary phase was used in combination with a gradient method starting with 0.1% formic acid in water (A) and MeCN (B) as mobile phase (A:B = 80:20) for 6 min going to A: B = 50:50 after 8 min. 5 µL of supernatant diluted in mobile phase starting conditions was loaded onto the column, separated at a flow rate of 400 µL/min, and detected and quantified per Area of MRM (multiple reaction monitoring) with the following transitions: m/z 381.797/145.000 (34); m/z 395.125/158.200 (36); m/z 409.822/131.000 (41); m/z 407.838/171.100 (42).

[3] = system: HBEC-5i human brain endothelial cells; assay: In vitro blood-brain-barrier model; format: in vitro ADME; details: HBEC-5i trans-well, 10 µM, 60 min
Protocol: Permeation of test compounds through a human brain endothelial cell barrier was evaluated using the Corning Costar 3470 Transwell Plate system (0.4 μm pore diameter with 6.5 mm inserts) and HBEC-5i cells (ATCC, CRL-3245). Filter inserts were coated one day before seeding with 50 μL 0.01% rat-tail collagen type I ([…], Sigma-Aldrich) in PBS. 60,000 HBEC-5i cells in 100 μL HBEC-5i-Medium (DMEM/F12 with 10% FCS and 40 μg/mL ECGS) were seeded after aspiration of the coating-supernatant in each insert with 600 μL HBEC-5i-Medium in each receiver well. After 24 h incubation at 37 °C with 5% CO2, the medium was exchanged to 600 μL T98G cell supernatant in receiver wells and 100 μL fresh HBEC-5i-Medium in inserts. The medium exchange was repeated every second day. On day 7 after seeding, the medium in the receiver wells was replaced by 600 μL Hank's balanced salt solution (HBSS) containing 10 mM HEPES and 0.1% DMSO and 100 μL test compound mixtures (antipyrine and test compound; each at 10 μM) in HBSS containing 10 mM HEPES and 0.1% DMSO were added to inserts. After 60 min incubation, 100 μL samples were taken from the receiver wells and diluted in 400 μL (75%/25% A/B; A=Formic acid 0.1% in water; B = Acetonitrile). Test compound concentrations in the samples were determined by LC-MS/MS on an API-3200-QTrap (Sciex) equipped with an Agilent Technologies 1100 series setup including a binary pump […]), and a Shimadzu […] autosampler under the control of Analyst 1.6 (Sciex). […] B) for 6 min going to (50%:50%) after 8 min. 5 μL of aspirated supernatant diluted in mobile phase starting conditions was loaded onto the column, separated at a flow rate of 400 μL/min, and quantified per Area of MRM (multiple reaction monitoring).

Nurr1 = system: Nurr1; set-up: method as in PMID 33289551; details: independent evaluation; cited from earlier work

EC50 [1] | max. activation [1] | half-life at 10 µM (Microsomal stability) | Structure (SMILES) | logPe (PAMPA) [2] | logPe (BBB) [3] | binding to Nurr1 (Nurr1)
0.12 ± 0.03 µM | 2.1 ± 0.2 fold | 42 ± 5 min | Cc1nc2c(Cl)cccn2c1NC(=O)c1ccc(-c2ccc(OC(C)C)cc2)o1 [Compound 41] | -5.684 and -5.708 and -5.674 and -5.7032 and -5.723 and -5.7183 | – | –
0.12 ± 0.06 µM | 1.5 ± 0.2 fold | 78 ± 7 min | Cc1nc2c(Cl)cccn2c1NC(=O)c1ccc(-c2ccc(OC3CC3)cc2)o1 [Compound 42, N-(8-Chloro-2-methylimidazo[1,2-a]pyridin-3-yl)-5-(4-cyclopropoxyphenyl)furan-2-carboxamide] | -5.857 and -5.822 and -5.789 and -5.846 and -5.806 | -5.049 and -5.059 and -4.946 and -5.046 and -4.96 and -4.965 | –

Further lines, the molecule ahead of its results:

Structure (SMILES) | EC50 [1] | max. activation [1] | half-life at 10 µM (Microsomal stability) | logPe (PAMPA) [2] | logPe (BBB) [3] | binding to Nurr1 (Nurr1)
COc1ccc(-c2ccc(C(=O)Nc3c(C)nc4c(Cl)cccn34)o2)cc1 [Compound 34] | 0.16 ± 0.06 µM | 1.7 ± 0.1 fold | 18 ± 2 min | -5.478 and -5.491 and -5.489 and -5.4212 and -5.4577 | – | –
O=C(Nc1ccccc1)c1cn2cc(-c3ccccn3)ccc2n1 [SR24237] | – | – | – | – | – | no evidence for binding
Cc1cc(=O)n(-c2ccccc2)n1C [antipyrine, reference compound] | – | – | – | – | -4.6402 and -4.7739 and -4.62 and -4.578 and -4.647 | –
